PMC6982741, “Design, Synthesis and Study of Nitrogen Monoxide Donors as Potent Hypolipidaemic and Anti-Inflammatory Agents” (Molecules, 2019)
Where two headings read alike, the source gives them in different places. Marks after values point to notes of the source that are not given here.

Assays:
soybean lipoxygenase 1-B = molecular target: T1, soybean lipoxygenase 1-B (Glycine max, UniProt P08170); assay: In vitro soybean lipoxygenase inhibition, linoleate as substrate; assay type: biochemical; settings: sodium linoleate 100 μM; after 7 min of incubation; pH 9.0, 28 °C
T1 construct: purchased Sigma (St. Louis, MO, U.S.A.)
T1 sequence (P08170 1-839): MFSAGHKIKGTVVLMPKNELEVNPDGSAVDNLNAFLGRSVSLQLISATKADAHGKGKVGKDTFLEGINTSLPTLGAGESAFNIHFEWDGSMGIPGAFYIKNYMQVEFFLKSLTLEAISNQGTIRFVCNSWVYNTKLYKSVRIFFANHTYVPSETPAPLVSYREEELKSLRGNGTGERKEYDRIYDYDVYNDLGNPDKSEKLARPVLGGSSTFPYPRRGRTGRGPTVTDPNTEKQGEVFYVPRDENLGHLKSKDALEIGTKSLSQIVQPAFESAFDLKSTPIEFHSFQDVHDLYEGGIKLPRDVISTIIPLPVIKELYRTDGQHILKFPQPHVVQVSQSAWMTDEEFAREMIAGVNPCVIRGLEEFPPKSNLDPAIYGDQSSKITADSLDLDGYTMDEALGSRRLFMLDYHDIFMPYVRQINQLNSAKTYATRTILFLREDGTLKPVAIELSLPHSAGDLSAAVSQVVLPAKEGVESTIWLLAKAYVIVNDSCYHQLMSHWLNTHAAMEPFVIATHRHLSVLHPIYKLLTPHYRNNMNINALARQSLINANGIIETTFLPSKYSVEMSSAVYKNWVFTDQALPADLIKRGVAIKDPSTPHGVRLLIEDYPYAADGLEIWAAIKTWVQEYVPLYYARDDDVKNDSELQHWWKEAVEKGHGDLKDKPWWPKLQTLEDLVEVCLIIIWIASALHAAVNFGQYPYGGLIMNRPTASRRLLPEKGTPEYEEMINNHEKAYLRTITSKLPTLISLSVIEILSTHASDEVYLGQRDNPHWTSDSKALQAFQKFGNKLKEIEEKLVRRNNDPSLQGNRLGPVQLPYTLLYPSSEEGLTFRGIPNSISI
Method: The reaction mixture contained the examined compounds (in absolute ethanol, 1–300 μM), soybean lipoxygenase (in saline, 250 u/mL) and sodium linoleate (100 μM), in Tris–HCl buffer, pH 9.0. The reaction was monitored for 7 min at 28 °C, recording the absorbance at 234 nm. […]

[1] = tested on: carrageenan-induced rat paw oedema; assay: Carrageenan-induced rat paw oedema; assay type: in vivo, Wistar rats; settings: 0.15 mmol/kg i.p., oedema after 3.5 h, vs carrageenan-only controls; for inhibition in vivo at 150 µmol/kg: Rattus norvegicus, ip, read-out: % Oedema Reduction
Method: The carrageenan-induced paw oedema is a well-known and widely used model of acute inflammation. The response to carrageenan inflammation may be divided into three phases. In the first phase (after 1.5 h), histamine and serotonin are released, the second phase (1.5–2.5 h after carrageenan administration) is mediated by kinins, whereas, in the third phase, more than two hours post administration, neutrophil infiltration, prostaglandin production and release of pro-inflammatory cytokines are involved. In this work, oedema was measured 3.5 h post injection.
κ-Carrageenan and lipoxygenase type I-B from soybean were purchased from Sigma (St. Louis, MO, U.S.A.).
The tested compounds (in water with a few drops of Tween 80) were given i.p. (0.15 mmol/kg) to rats, just after the i.d. injection of 0.1 mL of an aqueous carrageenan solution (1% w/v) in the hind paw of rats. The produced oedema, after 3.5 h, was estimated as paw weight increase.

[2] = In vitro nitrogen monoxide release (Griess reagent); settings: DMSO/water 7/3, overnight, cadmium
Method: Due to their poor aqueous solubility, compounds 1, 3-7 and 9 were dissolved in 7/3 (v/v) mixture of DMSO/water at various concentrations and incubated overnight at room temperature in the presence of cadmium. S-nitroso-N-acetylpenicillamine (SNAP) was dissolved either in DMSO/water 7/3 or in water and treated as above.
Aliquots were taken from each sample and added to an equal volume of N-naphthylaminoethylamine (0.2%) and sulfanilamide (2%) solution in 3 N hydrochloric acid (Griess reagent). Appropriate sodium nitrite solutions in the same DMSO/water mixture were used for the construction of the standard curve and values were identical to those obtained with aqueous solutions. Nitric oxide release was estimated spectrophotometrically (540 nm).

hyperlipidaemic rats = assay: Triton WR1339 (tyloxapol) induced hyperlipidaemia in rats; assay type: in vivo, Wistar rats; settings: Rattus norvegicus, ip, 24 h, 150 μmol/kg i.p., tyloxapol 200 mg/kg i.p., plasma after 24 h
Description: The pleiotropic effects of statins, used as hypolipidaemic drugs, include antioxidant ability and direct increase of eNOS activity, in addition to inhibition of 3-hydroxy-3-methylglutaryl coenzyme A (HMG-CoA) reductase. […] The systemic administration of Triton-WR1339 (tyloxapol) to rats induces a biphasic elevation of plasma cholesterol, atherogenic VLDL cholesterol and LDL cholesterol, as well as triglyceride levels. […] Agents shown to be active in phase I are considered to interfere with cholesterol biosynthesis.
κ-Carrageenan and lipoxygenase type I-B from soybean were purchased from Sigma (St. Louis, MO, U.S.A.). For the in vivo experiments, Wistar rats (180–220 g, 3–4 months old) were kept in the Centre of the School of Veterinary Medicine (EL54 BIO42), Aristotelian University of Thessaloniki, which is registered by the official state veterinary authorities (presidential degree 56/2013, in harmonization with the European Directive 2010/63/EEC). The experimental protocols were approved by the Animal Ethics Committee of the Prefecture of Central Macedonia (no. 270079/2500).
Hyperlipidaemia was induced by the i.p. administration of Triton WR 1339 (200 mg/kg) to rats. […] Blood was taken from the aorta after 24 h, for the determination of plasma total cholesterol, LDL-cholesterol and triglyceride concentrations, using commercial kits.

[3] = tested on: rat hepatic microsomal membrane lipid peroxidation; assay: Fe2+/ascorbate induced lipid peroxidation, TBA reactive material; assay type: biochemical; settings: for IC50: after 45 min of incubation, read-out: Inhibition of Lipid Peroxidation IC50
Method: (§1) The antioxidant activity of compounds was estimated by the inhibition of rat hepatic microsomal membrane lipid peroxidation, induced by Fe^+2/ascorbate, estimated as 2-thiobarbituric acid (TBA) reactive material, and by their interaction with the N-centred 1,1-diphenyl-2-picrylhydrazyl (DPPH) stable free radical. […] The percent interaction with DPPH and the IC50 values of compounds 7–9 on rat hepatic microsomal membrane lipid peroxidation, after 45 min of incubation is shown in Table 4.
The peroxidation of heat-inactivated (90°, 90 s) rat liver microsomal fraction was induced by ascorbic acid (0.2 mM) and ferrous sulphate (10 μΜ). The studied compounds, in dimethylsulfoxide, were added at concentrations 1 μM–1 mM. Aliquots were taken from the incubation mixture (37 °C) for 45 min. Lipid peroxidation was assessed spectrophotometrically (535/600 nm) as 2-thiobarbituric acid reactive material. All compounds and solvents were found not to interfere with the assay.

[4] = Interaction with the stable radical DPPH; settings: DPPH 200 μΜ, after 30 min
Method: as §1
Compounds (in absolute ethanol, final concentrations 25–200 μM) were added to an ethanolic solution of DPPH (final concentration 200 μM) at room temperature (22 ± 2 °C). Absorbance (517 nm) was recorded after 30 min.

[5] = read-out: % Reduction LDL-C (LDL cholesterol)
[6] = read-out: % Reduction TC (total cholesterol)
[7] = read-out: % Reduction TG (triglycerides)

Row | IC50 (soybean lipoxygenase 1-B) | melting point | IC50 [3] | SMILES | inhibition in vivo at 150 µmol/kg [1] | NO Release ([2]; compound 31.25 μM) | NO Release ([2]; compound 62.5 μM) | NO Release ([2]; compound 125 μM) | NO Release ([2]; compound 250 μM) | NO Release ([2]; compound 500 μM) | inhibition in vivo at 150 µmol/kg (hyperlipidaemic rats; [5]) | inhibition in vivo at 150 µmol/kg (hyperlipidaemic rats; [6]) | inhibition in vivo at 150 µmol/kg (hyperlipidaemic rats; [7]) | lag period in time course of lipid peroxidation ([3]; various concentrations, Figure 2) | Percent Interaction with DPPH ([4]; compound 50 μΜ) | Percent Interaction with DPPH ([4]; compound 100 μΜ) | Percent Interaction with DPPH ([4]; compound 200 μΜ) | % Oedema Reduction [1]
1 | 120 µM | 95 to 97 °C | 2.3 µM | Cc1c(C)c2c(c(C)c1O)CCC(C)(C(=O)OCCO[N+](=O)[O-])O2 (racemic) [Compound 9, (±)-2-(Nitrooxy)ethyl 6-hydroxy-2,5,7,8-tetramethylchroman-2-carboxylate] | 57% | 3 μΜ | 10 μΜ | 23 μΜ | 49 μΜ | 93 μΜ | 65% | 55.4% | 30% | about 20 min | 55% | 90% | 92% | 
2 | 107 µM | 83 to 84 °C |  | COc1ccc2c(c1)c(CC(=O)OCCO[N+](=O)[O-])c(C)n2C(=O)c1ccc(Cl)cc1 [Compound 3, 2-(Nitrooxy)ethyl 2-(1-(4-chlorobenzoyl)-5-methoxy-2-methyl-1H-indol-3-yl)acetate] | 29% | 5 μΜ | 13 μΜ | 28 μΜ | 58 μΜ | 102 μΜ | 62.3% | 71.7% | 31.8% |  |  |  |  | 
3 | 44 µM | 80 °C | 41 µM | CC(C)(C)c1cc(/C=C/C(=O)OCCO[N+](=O)[O-])cc(C(C)(C)C)c1O [Compound 7, (E)-2-(Nitrooxy)ethyl 3-(3,5-di-tert-butyl-4-hydroxyphenyl)acrylate] | 55% | 2 μΜ | 6.5 μΜ | 17 μΜ | 38 μΜ | 77 μΜ | 60.6% | 66% | 45.7% |  | 21% | 49% | 87% | 55 ** %
4 | 10.5 µM | 156 to 157 °C | 150 µM | CC(C)(C)c1cc(/C=C/C(=O)OCCc2ccc([N+](=O)[O-])cc2)cc(C(C)(C)C)c1O [Compound 8, (E)-4-Nitrophenethyl 3-(3,5-di-tert-butyl-4-hydroxyphenyl)acrylate] | 51% |  |  |  |  |  |  |  |  |  | 23% | 57% | 88% | 51 ** %
